Data taken from ChEMBL document CHEMBL4715850, “Exploiting binding-site arginines in drug design: Recent examples” (Bioorg Med Chem Lett, 2020).
pIC50: −log10 of the molar value.

Target: S-adenosylmethionine synthase isoform type-2 (Homo sapiens, UniProt P31153)
Assay: Allosteric inhibition of MAT2A (unknown origin) expressed in Escherichia coli BL21(DE3) assessed as reduction in S-adenosyl-methionine formation using methionine as substrate in presence of ATP by ELISA

Chain of S-adenosylmethionine synthase isoform type-2 (P31153 whole entry, canonical isoform): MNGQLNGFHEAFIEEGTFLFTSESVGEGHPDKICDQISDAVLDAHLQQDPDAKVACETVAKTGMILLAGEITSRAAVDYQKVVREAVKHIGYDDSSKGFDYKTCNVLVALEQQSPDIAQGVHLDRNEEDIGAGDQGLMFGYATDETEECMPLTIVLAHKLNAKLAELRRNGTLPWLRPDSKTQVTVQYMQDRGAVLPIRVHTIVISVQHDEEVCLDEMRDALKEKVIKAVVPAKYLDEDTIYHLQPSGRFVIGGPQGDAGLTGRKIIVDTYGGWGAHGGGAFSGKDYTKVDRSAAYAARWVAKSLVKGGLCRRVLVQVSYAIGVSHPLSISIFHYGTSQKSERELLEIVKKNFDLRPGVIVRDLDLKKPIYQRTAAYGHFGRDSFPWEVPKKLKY

COc1ccc2c(=O)c(C)c(-c3ccnc(-c4ccc(OC(F)(F)F)cc4)c3)[nH]c2c1
pIC50: 6.55
